Data: patent US8044053B2, “Sulfonamide substituted pyrazoline compounds, their preparation and use as CB1 modulators” (Laboratories del Dr. Esteve, S.A., priority 2006, dated 2011)

What was measured:
[1] = target: CB1-receptor (UniProt P20272); experiment: In-vitro determination of affinity (binding) to CB1-receptors, radioligand [3H]-CP55940; design: % inh; 10^−7 M; compound at 10^−7 M; species or system human or rat; details: compound at 10^−7 M
Method: (§1) I. In-Vitro Determination of Affinity to CB1/CB2-Receptors
(§2) The in-vitro determination of the affinity of the inventive substituted pyrazoline compounds to CB1/CB2-Rezeptors is carried out as described in the publication of Ruth A. Ross, Heather C. Brockie et al., “Agonist-inverse agonist characterisation at CB1 and CB2 cannabinoid receptors of L-759633, L759656 and AM630”, British Journal of Pharmacology, 126, 665-672, (1999), whereby the transfected human CB1 and CB2 receptors of Receptor Biology, Inc. are used. The radioligand used for both receptors is [^3H]-CP55940. The respective parts of the description is hereby incorporated by reference and forms part of the present disclosure.
(§3) Rat Cerebellum CB1 Binding
(§4) Binding affinity to CB1 receptor was evaluated according to a modification of the method described by Govaerts et al., Eur J Pharmac Sci 23, 233-243 (2004). The respective parts of the description is hereby incorporated by reference and forms part of the present disclosure.
(§5) Briefly, cerebellum from male wistar rats (250-300 g) were carefully dissected on ice and homogenates were prepared with Potter-Helveheim in a cold 50 mM Tris-HCl solution containing 5 mM MgCl2, 1 mM EDTA and 0.25 M sucrose, pH 7.4. The suspension was centrifuged at 1,000×g for 5 minutes. The supernatants were collected and centrifuged 50,000×g for 15 minutes. The resulting pellets were then resuspended in Tris-HCl buffer without sucrose, homogenised and incubated for 15 min at 37° C. in an orbital shaker bath and centrifuged again at 50,000×g for 15 min. Pellets were weighted, resuspended in Tris-HCl buffer without sucrose, homogenised with Ultraturrax at 13,500 rpm for 3×5 seconds and alicuoted in 0.9 ml volumes in Eppendorf tubes. Alicuotes were centrifuged at 20,800×g for 5 minutes, supernatants discarded and pellets were frozen at −80° C. until use. Total protein concentration was determined using the Bio-Rad Lowry method based kit. Competitive binding experiments were performed in presence of 1 nM [^3H]-CP 55,940 in siliconised glass tubes containing 100 μg protein/tube resuspended in 1 ml final volume of 50 mM Tris-HCl, 5 mM MgCl2, 1 mM EDTA, 0.5% (w/v) bovine serum albumin, pH 7.4. Compounds were present at various concentrations and the non specific binding was determined in the presence of 10 μM HU-210. After 1 hour incubation at 30° C., the suspension was rapidly filtered through 0.5% PEI pre-treated GF/B fiber filters on a 96-well harvester and washed 3 times with 3 ml ice-cold binding buffer without bovine serum albumin. Radioactivity on filters was measured with Wallac Winspectral 1414 counter by liquid scintillation in 6 ml Ecoscint H (National Diagnostics, U.K.). Assays were made in triplicates.
(§6) Binding data were analysed by non-linear regression with the software GraphPad Prism Version 3.03.
(§7) The binding of the pyrazoline compounds of general formulae I, Ia and Ib to CB1-receptors was determined according to the method described in the section Pharmacological Methods, Part I.

[2] = target: CB1-receptor (UniProt P20272); experiment: as above; design: IC50; Ki; species or system human or rat; details: Pharmacological Methods Part I
Method: as §1, §2, §3, §4, §5, §6, §7

% inh. 10^−7 M [1]	IC50 [2]	Ki [2]	Structure (SMILES)
51.9%	0.097 µM	0.0439 µM	Cc1cc(C)c(S(=O)(=O)NCC2=NN(c3ccc(Cl)cc3Cl)C(c3ccc(Cl)cc3)C2)c(C)c1 (centres unmarked) [Example 40, N-[5-(4-Chloro-phenyl)-1-(2,4-dichloro-phenyl)-4,5-dihydro-1H-pyrazol-3-ylmethyl]-2,4,6-trimethyl-benzenesulfonamide]
54.1%	0.015 µM	0.0073 µM	Cc1ccc(C)c(S(=O)(=O)NCC2=NN(c3ccc(Cl)cc3Cl)C(c3ccc(Cl)cc3)C2)c1 (centres unmarked) [Example 44, N-[5-(4-Chloro-phenyl)-1-(2,4-dichloro-phenyl)-4,5-dihydro-1H-pyrazol-3-ylmethyl]-2,5-dimethyl-benzenesulfonamide]
53.8%	0.0141 µM	–	Cc1cccc(Cl)c1S(=O)(=O)NCC1=NN(c2ccc(Cl)cc2Cl)C(c2ccc(Cl)cc2)C1 (centres unmarked) [Example 34, 2-Chloro-N-[5-(4-chloro-phenyl)-1-(2,4-dichloro-phenyl)-4,5-dihydro-1H-pyrazol-3-ylmethyl]-6-methyl-benzenesulfonamide]

More lines, now with the values behind:

Structure (SMILES)	% inh. 10^−7 M [1]	IC50 [2]	Ki [2]
O=S(=O)(NCC1=NN(c2ccc(Cl)cc2Cl)C(c2ccc(Cl)cc2)C1)c1cccc(Cl)c1 (centres unmarked) [Example 1, 3-Chloro-N-[5-(4-chloro-phenyl)-1-(2,4-dichloro-phenyl)-4,5-dihydro-1H-pyrazol-3-ylmethyl]-benzenesulfonamide]	27.1%	0.388 µM	–
O=S(=O)(NCC1=NN(c2ccc(Cl)cc2Cl)C(c2ccc(Cl)cc2)C1)c1ccsc1 (centres unmarked) [Example 9, Thiophene-3-sulfonic acid [5-(4-chloro-phenyl)-1-(2,4-dichloro-phenyl)-4,5-dihydro-1H-pyrazol-3-ylmethyl]-amide]	54.3%	0.0677 µM	0.0306 µM
CCS(=O)(=O)NCC1=NN(c2ccc(Cl)cc2Cl)C(c2ccc(Cl)cc2)C1 (centres unmarked) [Example 14, Ethanesulfonic acid [5-(4-chloro-phenyl)-1-(2,4-dichloro-phenyl)-4,5-dihydro-1H-pyrazol-3-ylmethyl]-amide]	76.6%	0.458 µM	–
O=S(=O)(NCC1=NN(c2ccc(Cl)cc2Cl)C(c2ccc(Cl)cc2)C1)C1=C(Cl)NC2SC=CN12 (centres unmarked) [Example 32, 6-Chloro-7,7a-dihydro-imidazo[2,1-b]thiazole-5-sulfonic acid [5-(4-chloro-phenyl)-1-(2,4-dichloro-phenyl)-4,5-dihydro-1H-pyrazol-3-ylmethyl]-amide]	20.0%	0.121 µM	–
CCCS(=O)(=O)NCC1=NN(c2ccc(Cl)cc2Cl)C(c2ccc(Cl)cc2)C1 (centres unmarked) [Example 21, Propane-1-sulfonic acid [5-(4-chloro-phenyl)-1-(2,4-dichloro-phenyl)-4,5-dihydro-1H-pyrazol-3-ylmethyl]-amide]	80.6%	0.263 µM	–
CC1(C)C2CCC1(CS(=O)(=O)NCC1=NN(c3ccc(Cl)cc3Cl)C(c3ccc(Cl)cc3)C1)C(=O)C2 (centres unmarked) [Example 7, N-[5-(4-Chloro-phenyl)-1-(2,4-dichloro-phenyl)-4,5-dihydro-1H-pyrazol-3-ylmethyl]-C-(7,7-dimethyl-2-oxo-bicyclo[2.2.1]hept-1-yl)-methanesulfonamide]	11.9%	0.184 µM	–
O=S(=O)(NCC1=NN(c2ccc(Cl)cc2Cl)C(c2ccc(Cl)cc2)C1)c1ccccc1Cl (centres unmarked) [Example 23, 2-Chloro-N-[5-(4-chloro-phenyl)-1-(2,4-dichloro-phenyl)-4,5-dihydro-1H-pyrazol-3-ylmethyl]-benzenesulfonamide]	54.9%	0.183 µM	–
